Here are results for seven molecules from ChEMBL document CHEMBL3132769, “Fragment growing to retain or alter the selectivity of anchored kinase hinge-binding fragments” (Medchemcomm, 2014).

Assay [1] concerns the target Fibroblast growth factor receptor 3 (Homo sapiens) (UniProt P22607). The experiment in a line: Inhibition of human FGFR3 catalytic domain expressed in baculovirus assessed as substrate phosphorylation using fluorescence-labelled peptides as substrate at 0.2 uM after 90 mins by microfluidic peptide phosphorylation assay.
The target in assay [2] is T1, Protein kinase C epsilon type (Homo sapiens) (UniProt Q02156).
T1 sequence (whole entry): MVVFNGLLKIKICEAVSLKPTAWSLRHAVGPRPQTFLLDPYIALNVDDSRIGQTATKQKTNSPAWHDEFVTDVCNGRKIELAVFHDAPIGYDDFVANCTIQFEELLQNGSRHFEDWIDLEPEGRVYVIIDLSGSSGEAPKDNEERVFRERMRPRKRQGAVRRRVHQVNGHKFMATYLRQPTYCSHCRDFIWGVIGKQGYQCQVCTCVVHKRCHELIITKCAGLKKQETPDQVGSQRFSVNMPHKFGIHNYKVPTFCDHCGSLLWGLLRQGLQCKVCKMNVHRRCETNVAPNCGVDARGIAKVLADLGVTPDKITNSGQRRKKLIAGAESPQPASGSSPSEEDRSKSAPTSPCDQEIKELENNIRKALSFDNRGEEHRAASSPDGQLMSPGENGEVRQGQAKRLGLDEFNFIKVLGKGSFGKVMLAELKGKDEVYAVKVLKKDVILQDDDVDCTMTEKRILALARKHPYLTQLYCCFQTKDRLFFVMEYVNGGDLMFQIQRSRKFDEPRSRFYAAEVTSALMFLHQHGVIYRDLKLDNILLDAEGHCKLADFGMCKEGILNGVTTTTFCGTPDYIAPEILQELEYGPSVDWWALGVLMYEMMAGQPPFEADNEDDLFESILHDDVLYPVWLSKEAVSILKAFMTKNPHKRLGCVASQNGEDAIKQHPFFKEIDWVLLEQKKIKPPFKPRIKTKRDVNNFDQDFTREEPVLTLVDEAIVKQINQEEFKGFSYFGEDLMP
The experiment in a line: Inhibition of human truncated PKC epsilon expressed in baculovirus assessed as substrate phosphorylation using fluorescence-labelled peptides as substrate at 0.2 uM after 90 mins by microfluidic peptide phosphorylation assay.

The target in assay [3] is Serine/threonine-protein kinase PAK 2 (Homo sapiens) (UniProt Q13177). The experiment in a line: Inhibition of human truncated PAK2 expressed in Escherichia coli cell assessed as substrate phosphorylation using fluorescence-labelled peptides as substrate at 420 uM after 90 mins by microfluidic peptide phosphorylation assay.
For assay [4], the target named is Tyrosine-protein kinase Fer (Homo sapiens) (UniProt P16591). The experiment in a line: Inhibition of human FER catalytic domain expressed in baculovirus assessed as substrate phosphorylation using fluorescence-labelled peptides as substrate at 95 uM after 90 mins by microfluidic peptide phosphorylation assay.
Assay [5] has as its target Serine/threonine-protein kinase MARK2 (Homo sapiens) (UniProt Q7KZI7). The experiment in a line: Inhibition of human full length MARK2 expressed in baculovirus assessed as substrate phosphorylation using fluorescence-labelled peptides as substrate at 95 uM after 90 mins by microfluidic peptide phosphorylation assay.
Assay [6] concerns the target Platelet-derived growth factor receptor alpha (Homo sapiens) (UniProt P16234). Briefly: Inhibition of human PDGFR alpha catalytic domain expressed in baculovirus assessed as substrate phosphorylation using fluorescence-labelled peptides as substrate at 95 uM after 90 mins by microfluidic peptide phosphorylation assay.
The target in assay [7] is Fibroblast growth factor receptor 4 (Homo sapiens) (UniProt P22455). Briefly: Inhibition of human FGFR4 catalytic domain expressed in baculovirus assessed as substrate phosphorylation using fluorescence-labelled peptides as substrate at 9 uM after 90 mins by microfluidic peptide phosphorylation assay.
The target in assay [8] is Hepatocyte growth factor receptor (Homo sapiens) (UniProt P08581). The experiment in a line: Inhibition of human MET cytoplasmic domain expressed in baculovirus assessed as substrate phosphorylation using fluorescence-labelled peptides as substrate at […] after 90 mins by microfluidic peptide phosphorylation assay.
Assay [9] addresses Receptor-type tyrosine-protein kinase FLT3 (Homo sapiens) (UniProt P36888). The experiment in a line: Inhibition of human FLT3 catalytic domain expressed in baculovirus assessed as substrate phosphorylation using fluorescence-labelled peptides as substrate at […] after 90 mins by microfluidic peptide phosphorylation assay.
The subject of assay [10] is T2, Receptor-type tyrosine-protein kinase FLT3 (Homo sapiens), P36888 [D835Y].
T2 sequence (whole entry): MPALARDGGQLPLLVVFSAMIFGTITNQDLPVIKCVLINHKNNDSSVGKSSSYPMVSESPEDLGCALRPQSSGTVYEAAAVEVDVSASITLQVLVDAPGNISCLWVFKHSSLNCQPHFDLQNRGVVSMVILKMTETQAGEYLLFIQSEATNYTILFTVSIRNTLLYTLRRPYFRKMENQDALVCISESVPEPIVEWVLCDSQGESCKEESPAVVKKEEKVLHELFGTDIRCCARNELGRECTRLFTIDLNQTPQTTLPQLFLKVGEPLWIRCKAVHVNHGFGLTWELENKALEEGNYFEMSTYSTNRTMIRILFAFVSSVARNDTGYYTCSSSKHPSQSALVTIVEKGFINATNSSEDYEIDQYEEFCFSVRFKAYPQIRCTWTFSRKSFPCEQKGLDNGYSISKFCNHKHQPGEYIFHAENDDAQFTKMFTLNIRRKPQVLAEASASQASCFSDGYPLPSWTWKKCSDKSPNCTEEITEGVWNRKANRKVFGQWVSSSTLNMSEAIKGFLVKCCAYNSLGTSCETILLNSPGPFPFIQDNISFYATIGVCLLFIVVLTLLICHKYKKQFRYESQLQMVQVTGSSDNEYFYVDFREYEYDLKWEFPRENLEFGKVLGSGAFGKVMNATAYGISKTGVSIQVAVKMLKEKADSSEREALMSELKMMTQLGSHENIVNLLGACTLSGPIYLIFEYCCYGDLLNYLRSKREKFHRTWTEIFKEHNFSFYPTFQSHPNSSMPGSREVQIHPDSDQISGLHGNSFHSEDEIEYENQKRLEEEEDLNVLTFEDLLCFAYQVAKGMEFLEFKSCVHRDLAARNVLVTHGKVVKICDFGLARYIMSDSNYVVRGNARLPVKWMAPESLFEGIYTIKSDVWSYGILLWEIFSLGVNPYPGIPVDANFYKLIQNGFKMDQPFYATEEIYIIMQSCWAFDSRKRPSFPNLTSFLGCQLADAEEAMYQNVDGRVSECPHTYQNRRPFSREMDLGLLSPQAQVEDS
The experiment in a line: Inhibition of human FLT3 D835Y mutant catalytic domain expressed in baculovirus assessed as substrate phosphorylation using fluorescence-labelled peptides as substrate at 1000 uM after 90 mins by microfluidic peptide phosphorylation assay.

Assay [11] addresses Protein kinase C theta type (Homo sapiens) (UniProt Q04759). Briefly: Inhibition of human truncated PKC theta expressed in baculovirus assessed as substrate phosphorylation using fluorescence-labelled peptides as substrate at 1000 uM after 90 mins by microfluidic peptide phosphorylation assay.
Assay [12] deals with Tyrosine-protein kinase ABL2 (Homo sapiens) (UniProt P42684). The experiment in a line: Inhibition of human truncated Arg expressed in baculovirus assessed as substrate phosphorylation using fluorescence-labelled peptides as substrate at 2 uM after 90 mins by microfluidic peptide phosphorylation assay.

Fibroblast growth factor receptor 4 (Homo sapiens), sequence (P22455 22-802 limits assumed): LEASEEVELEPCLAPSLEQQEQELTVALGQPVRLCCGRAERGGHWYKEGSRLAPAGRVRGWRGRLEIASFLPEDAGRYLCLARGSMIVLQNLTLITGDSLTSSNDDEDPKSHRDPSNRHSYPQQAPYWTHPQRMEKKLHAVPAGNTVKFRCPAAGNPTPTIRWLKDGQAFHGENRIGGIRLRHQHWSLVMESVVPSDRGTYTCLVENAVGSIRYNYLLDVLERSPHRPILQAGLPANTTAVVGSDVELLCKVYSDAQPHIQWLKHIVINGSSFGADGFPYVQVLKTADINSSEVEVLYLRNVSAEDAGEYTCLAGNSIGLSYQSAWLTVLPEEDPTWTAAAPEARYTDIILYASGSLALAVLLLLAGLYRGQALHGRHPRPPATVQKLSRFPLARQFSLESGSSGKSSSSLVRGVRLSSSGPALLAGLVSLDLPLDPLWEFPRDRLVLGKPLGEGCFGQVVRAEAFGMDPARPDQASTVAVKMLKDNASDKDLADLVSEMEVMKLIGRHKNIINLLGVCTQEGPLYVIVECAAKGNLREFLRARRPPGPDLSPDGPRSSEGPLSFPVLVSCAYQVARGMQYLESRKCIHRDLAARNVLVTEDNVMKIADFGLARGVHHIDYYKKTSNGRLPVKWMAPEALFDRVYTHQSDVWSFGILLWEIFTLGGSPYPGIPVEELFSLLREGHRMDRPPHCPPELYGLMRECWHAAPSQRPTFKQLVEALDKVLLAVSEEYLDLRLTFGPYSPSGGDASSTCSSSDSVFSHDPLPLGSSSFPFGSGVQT
Platelet-derived growth factor receptor alpha (Homo sapiens), sequence (P16234 whole entry, the tested form may be a part): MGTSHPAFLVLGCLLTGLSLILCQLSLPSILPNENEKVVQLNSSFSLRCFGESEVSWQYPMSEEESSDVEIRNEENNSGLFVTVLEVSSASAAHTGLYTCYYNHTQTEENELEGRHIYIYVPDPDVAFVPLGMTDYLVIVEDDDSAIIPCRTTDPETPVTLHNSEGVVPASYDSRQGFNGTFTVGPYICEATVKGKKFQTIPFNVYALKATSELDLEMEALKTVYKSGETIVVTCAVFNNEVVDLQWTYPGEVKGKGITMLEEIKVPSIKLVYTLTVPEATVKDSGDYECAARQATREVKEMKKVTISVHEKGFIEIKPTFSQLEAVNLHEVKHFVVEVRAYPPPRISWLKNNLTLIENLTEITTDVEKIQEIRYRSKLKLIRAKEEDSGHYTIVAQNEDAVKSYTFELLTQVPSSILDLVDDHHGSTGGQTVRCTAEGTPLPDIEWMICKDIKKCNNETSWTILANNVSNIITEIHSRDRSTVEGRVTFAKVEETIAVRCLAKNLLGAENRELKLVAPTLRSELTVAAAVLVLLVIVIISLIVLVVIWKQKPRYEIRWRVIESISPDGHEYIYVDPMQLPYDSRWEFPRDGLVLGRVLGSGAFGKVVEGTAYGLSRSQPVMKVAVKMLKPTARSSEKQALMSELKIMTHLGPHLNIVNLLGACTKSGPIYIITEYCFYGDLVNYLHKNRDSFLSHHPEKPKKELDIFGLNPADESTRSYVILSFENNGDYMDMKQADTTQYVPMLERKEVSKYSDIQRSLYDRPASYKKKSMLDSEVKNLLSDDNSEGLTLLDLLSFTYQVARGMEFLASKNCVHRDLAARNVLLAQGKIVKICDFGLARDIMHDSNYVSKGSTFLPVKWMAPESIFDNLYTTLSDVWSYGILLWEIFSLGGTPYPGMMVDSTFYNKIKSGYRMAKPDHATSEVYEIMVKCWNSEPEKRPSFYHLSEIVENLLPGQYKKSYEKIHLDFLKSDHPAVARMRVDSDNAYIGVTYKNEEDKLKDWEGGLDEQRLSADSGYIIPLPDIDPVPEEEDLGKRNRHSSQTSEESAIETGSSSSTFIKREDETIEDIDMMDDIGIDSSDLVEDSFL
Fibroblast growth factor receptor 3 (Homo sapiens), sequence (P22607 23-806 limits assumed): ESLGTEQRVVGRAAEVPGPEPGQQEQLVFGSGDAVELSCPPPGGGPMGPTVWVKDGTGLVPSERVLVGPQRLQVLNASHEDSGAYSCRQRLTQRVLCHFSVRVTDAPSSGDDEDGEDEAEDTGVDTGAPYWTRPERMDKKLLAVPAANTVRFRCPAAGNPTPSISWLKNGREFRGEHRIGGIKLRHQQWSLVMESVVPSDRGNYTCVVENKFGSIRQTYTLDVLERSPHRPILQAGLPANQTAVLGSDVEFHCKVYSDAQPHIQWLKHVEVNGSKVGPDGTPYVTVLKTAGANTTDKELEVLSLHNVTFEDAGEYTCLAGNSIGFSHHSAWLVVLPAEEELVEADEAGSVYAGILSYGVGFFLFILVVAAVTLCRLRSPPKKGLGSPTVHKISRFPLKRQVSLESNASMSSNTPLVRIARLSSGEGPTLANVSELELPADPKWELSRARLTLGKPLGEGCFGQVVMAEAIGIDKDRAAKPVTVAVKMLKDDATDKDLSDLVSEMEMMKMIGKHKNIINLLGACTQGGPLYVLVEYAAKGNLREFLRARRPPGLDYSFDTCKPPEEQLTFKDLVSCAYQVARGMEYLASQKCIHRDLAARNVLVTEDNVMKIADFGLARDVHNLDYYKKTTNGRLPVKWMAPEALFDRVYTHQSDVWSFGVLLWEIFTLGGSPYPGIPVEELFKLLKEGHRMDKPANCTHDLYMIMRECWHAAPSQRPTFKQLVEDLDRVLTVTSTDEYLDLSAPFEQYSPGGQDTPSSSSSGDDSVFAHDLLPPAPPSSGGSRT
Hepatocyte growth factor receptor (Homo sapiens), sequence (P08581 whole entry, the tested form may be a part): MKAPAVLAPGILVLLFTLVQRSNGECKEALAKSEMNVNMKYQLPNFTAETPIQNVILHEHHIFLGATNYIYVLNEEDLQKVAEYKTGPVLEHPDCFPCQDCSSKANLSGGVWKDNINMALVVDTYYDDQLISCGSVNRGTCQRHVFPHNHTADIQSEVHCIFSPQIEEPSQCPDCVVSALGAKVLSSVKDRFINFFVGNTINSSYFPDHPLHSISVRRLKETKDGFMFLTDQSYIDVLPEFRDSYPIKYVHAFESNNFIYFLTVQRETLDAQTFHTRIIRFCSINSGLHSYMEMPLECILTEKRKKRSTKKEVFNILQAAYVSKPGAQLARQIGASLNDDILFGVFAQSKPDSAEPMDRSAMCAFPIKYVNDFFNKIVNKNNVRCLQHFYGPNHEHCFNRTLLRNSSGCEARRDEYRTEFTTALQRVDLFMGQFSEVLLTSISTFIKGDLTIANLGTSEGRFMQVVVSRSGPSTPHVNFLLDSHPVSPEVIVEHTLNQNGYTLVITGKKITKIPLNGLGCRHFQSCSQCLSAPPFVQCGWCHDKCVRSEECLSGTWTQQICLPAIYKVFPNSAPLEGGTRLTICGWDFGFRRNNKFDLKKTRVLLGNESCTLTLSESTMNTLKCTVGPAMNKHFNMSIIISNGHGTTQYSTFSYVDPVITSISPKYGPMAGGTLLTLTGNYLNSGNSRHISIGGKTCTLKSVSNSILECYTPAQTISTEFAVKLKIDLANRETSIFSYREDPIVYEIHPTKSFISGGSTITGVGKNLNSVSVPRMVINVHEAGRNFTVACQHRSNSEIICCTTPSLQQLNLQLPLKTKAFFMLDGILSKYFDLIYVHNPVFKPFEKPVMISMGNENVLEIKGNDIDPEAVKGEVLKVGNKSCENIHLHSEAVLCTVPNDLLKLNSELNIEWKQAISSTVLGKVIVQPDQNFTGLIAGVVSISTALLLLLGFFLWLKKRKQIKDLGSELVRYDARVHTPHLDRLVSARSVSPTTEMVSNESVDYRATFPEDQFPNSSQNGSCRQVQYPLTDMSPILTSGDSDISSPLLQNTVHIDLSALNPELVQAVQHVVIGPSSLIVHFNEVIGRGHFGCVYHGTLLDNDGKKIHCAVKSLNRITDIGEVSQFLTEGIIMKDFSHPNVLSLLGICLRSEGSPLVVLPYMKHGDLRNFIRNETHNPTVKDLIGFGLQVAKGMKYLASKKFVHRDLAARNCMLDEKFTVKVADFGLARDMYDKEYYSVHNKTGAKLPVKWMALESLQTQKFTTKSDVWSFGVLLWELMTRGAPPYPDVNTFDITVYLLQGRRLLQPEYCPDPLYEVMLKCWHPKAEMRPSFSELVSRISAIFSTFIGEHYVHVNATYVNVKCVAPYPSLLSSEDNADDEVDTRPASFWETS
Protein kinase C theta type (Homo sapiens), sequence (Q04759 whole entry, looked up, the tested form may be a part): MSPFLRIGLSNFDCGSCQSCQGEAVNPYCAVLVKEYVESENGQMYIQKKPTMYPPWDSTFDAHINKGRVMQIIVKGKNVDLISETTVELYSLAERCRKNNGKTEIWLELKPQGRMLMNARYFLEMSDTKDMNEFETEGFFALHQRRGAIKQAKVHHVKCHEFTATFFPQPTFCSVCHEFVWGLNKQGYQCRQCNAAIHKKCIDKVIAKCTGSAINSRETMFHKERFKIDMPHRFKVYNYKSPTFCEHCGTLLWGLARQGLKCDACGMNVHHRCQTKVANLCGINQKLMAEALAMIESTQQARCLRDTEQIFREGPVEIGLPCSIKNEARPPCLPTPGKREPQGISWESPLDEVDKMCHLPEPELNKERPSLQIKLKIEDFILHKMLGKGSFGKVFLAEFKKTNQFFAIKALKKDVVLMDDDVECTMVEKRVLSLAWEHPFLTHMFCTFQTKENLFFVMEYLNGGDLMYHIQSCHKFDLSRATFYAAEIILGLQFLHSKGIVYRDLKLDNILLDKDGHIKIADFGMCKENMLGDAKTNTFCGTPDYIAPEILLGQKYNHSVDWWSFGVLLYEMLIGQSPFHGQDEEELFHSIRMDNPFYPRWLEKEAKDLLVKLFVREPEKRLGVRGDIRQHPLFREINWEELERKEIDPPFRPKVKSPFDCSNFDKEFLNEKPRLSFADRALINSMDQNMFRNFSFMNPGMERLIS

Regarding `Clc1ccc(C2(c3ccc(-c4ncnc5[nH]cnc45)cc3)CCNCC2)cc1`, the results for the inhibition in [1] and in assay [2] were 0% and 46.5%, respectively. Regarding `c1nc(N2CCOCC2)c2nc[nH]c2n1`, the inhibition in assay [3] came to 67.5%. Turning to `NCCc1ccc(-c2ncnc3[nH]cnc23)cc1`, the inhibition in assay [4] was 28%; in [5] it was 67%; in assay [6] it was 37%.

On to `NCC1CN(c2ncnc3[nH]c4cnccc4c23)CCO1` (configuration not stated), for which the inhibition in assay [7] came to 0%. In the case of `COC(=O)c1cnc(Nc2cnc(C#N)cn2)cc1NCC1CCNCC1`, the figures for the inhibition in assay [8] and in [9] were 2.5% and 21%, respectively. Regarding `c1cnc2[nH]ccc2c1`, the inhibition in assay [10] was determined as 76%; in [11], 29%. As for `NC1CCN(c2ncnc3[nH]ccc23)CC1`, the inhibition in [12] stood at 7.5%.
